From patent US12227520B2 (priority 2019, dated 2025)
Read-outs that look alike come from different tables or passages of the source.

Columns and labels:
HIV-1 (IIIB) = assay: Antiviral assay in MT-4 cells (HIV MT-4 antiviral assay); assay type: cell-based; conditions: Human immunodeficiency virus 1, IIIB, MT4, 120 h, HIV-1 (IIIB) in MT-4 cells, 5 days incubation; read-out: EC50
In short: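 MT-4 cells infected with HIV-1 IIIB (1:250 diluted stock) and exposed to 1:3 serially diluted compound in RPMI with 10% FBS. Viability read by CellTiter-Glo luminescence after 5 days at 37° C; mock-infected cells and 5 μM AZT as controls.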

[1] = Cytotoxicity assay in MT-4 cells; assay type: cell-based, human; conditions: human, uninfected MT-4 cells, 5 days incubation; read-out: CC50
In short: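 Infected MT-4 cells (HIV-1 IIIB, fresh 1:250 dilution of concentrated stock) or mock-infected cells exposed to compounds for 5 days at 37 °C. Viability by CellTiter-Glo luminescence; 5 μM AZT positive control, no-drug negative control. Uninfected cells used for cytotoxicity, with 10 μM puromycin as base-level cytotoxicity control.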

pLai RLuc reporter virus = assay: microbe, parasite or virus in culture; assay type: cell-based, HIV; conditions: Human immunodeficiency virus 1, 72 h
In short: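 MT-4 cells pre-infected 2 h at 37 °C with pLai RLuc virus, then exposed to 1:3 serial dilutions of compound in RPMI/10% FBS with or without 50% human serum for 72 h at 37 °C. Renilla luminescence read-out; serum shift = EC50(HS/CCM)/EC50(CCM).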

[2] = read-out: Antiviral Serum Shift RLuc 50% HS, HS/CCM (RPMI media, 10% FBS, 50% HS, 1% P/S), 72-h incubation
[3] = read-out: Antiviral Serum Shift RLuc CCM, CCM (RPMI media, 10% FBS, 1% P/S), 72-h incubation

Row | Compound | EC50 (HIV-1 (IIIB)) | CC50 at 5 days [1] | EC50 (pLai RLuc reporter virus; [2]) | EC50 (pLai RLuc reporter virus; [3])
1 | C[C@@]1(O)CCCN2C[C@@H]1n1cc(C(=O)NCc3ccc(F)cc3F)c(=O)c(O)c1C2=O [Example 14-2, (6R,7S)—N-(2,4-difluorobenzyl)-6,12-dihydroxy-6-methyl-1,11-dioxo-1,4,5,6,7,11-hexahydro-3H-2,7-methanopyrido[1,2-a][1,4]diazonine-10-carboxamide] | 2.7 nM | 19900 nM | 0.414 nM | 0.567 nM
2 | O=C(NCc1ccc(F)c(Cl)c1F)c1cn2c(c(O)c1=O)C(=O)N1CC=CC[C@H]2C1 [Example 58, (7S)—N-(3-chloro-2,4-difluorobenzyl)-12-hydroxy-1,11-dioxo-1,6,7,11-tetrahydro-3H-2,7-methanopyrido[1,2-a][1,4]diazonine-10-carboxamide] | 0.986 nM | 4150 nM | 1.67 nM | 0.25 nM
3 | O=C(NCc1ccc(F)cc1F)c1cn2c(c(O)c1=O)C(=O)N1CCc3cc(Cl)ccc3[C@@H]2C1 [Example 140-2, (13R)-10-chloro-N-(2,4-difluorobenzyl)-4-hydroxy-3,5-dioxo-3,5,8,13-tetrahydro-7H-6,13-methanobenzo[g]pyrido[1,2-a][1,4]diazonine-2-carboxamide] | 1.92 nM | 5230 nM | 22.4 nM | 0.347 nM
4 | C[C@@H]1CC[C@@H](C)N2C[C@H]1n1cc(C(=O)NCc3c(F)cc(F)cc3F)c(=O)c(O)c1C2=O [Example 151-2, (3R,6R,7S)-12-hydroxy-3,6-dimethyl-1,11-dioxo-N-(2,4,6-trifluorobenzyl)-1,4,5,6,7,11-hexahydro-3H-2,7-methanopyrido[1,2-a][1,4]diazonine-10-carboxamide] | 1.75 nM | 7200 nM | 7.22 nM | 0.44 nM
5 | C[C@H]1CCC[C@H]2CN1C(=O)c1c(O)c(=O)c(C(=O)NCc3c(F)cc(F)cc3F)cn12 [Example 98, (3S, 7S)-12-hydroxy-3-methyl-1,11-dioxo-N-(2,4,6-trifluorobenzyl)-1,4,5,6,7,11-hexahydro-3H-2,7-methanopyrido[1,2-a][1,4]diazonine-10-carboxamide] | 1.27 nM | 14300 nM | 19.2 nM | 0.284 nM
6 | C[C@@]12Cc3cc(F)c(F)cc3CN(C1)C(=O)c1c(O)c(=O)c(C(=O)NCc3c(F)cc(F)cc3F)cn12 (single isomer, unassigned) [Example 191-1] | 2.61 nM | 11600 nM | 2.69 nM | 0.611 nM
7 | O=C(NCc1ccc(F)cc1F)c1cn2c(c(O)c1=O)C(=O)N1CC=CC[C@H]2C1 [Example 47-2, (7S)—N-(2,4-difluorobenzyl)-12-hydroxy-1,11-dioxo-1,6,7,11-tetrahydro-3H-2,7-methanopyrido[1,2-a][1,4]diazonine-10-carboxamide] | 1.16 nM | 8720 nM | 1.01 nM | 0.247 nM
8 | O=C(NCc1ccc(F)cc1F)c1cn2c(c(O)c1=O)C(=O)N1CCC[C@H]3C[C@@]32C1 [Example 65-2, (1aS,11aS)—N-(2,4-difluorobenzyl)-7-hydroxy-6,8-dioxo-1a,2,3,4,6,8-hexahydro-1H-5,11a-methanocyclopropa[h]pyrido[1,2-a][1,4]diazonine-9-carboxamide] | 1.66 nM | 8820 nM | 3.47 nM | 0.341 nM
9 | O=C(NCc1c(F)cc(F)cc1F)c1cn2c(c(O)c1=O)C(=O)N1C[C@@H]2CCc2ccc(F)cc21 [Example 86-2, (12S)-3-fluoro-7-hydroxy-6,8-dioxo-N-(2,4,6-trifluorobenzyl)-6,8,13,14-tetrahydro-12H-5,12-methanobenzo[e]pyrido[1,2-a][1,4]diazonine-9-carboxamide] | 1.1 nM | 13700 nM | 0.5 nM | 0.262 nM
10 | C[C@]1(F)CCCN2C[C@@H]1n1cc(C(=O)NCc3ccc(F)cc3F)c(=O)c(O)c1C2=O (single isomer, unassigned) [Example 60-2] | 1.97 nM | 14000 nM | 102 nM | 0.328 nM
11 | O=C(NCc1ccc(F)cc1F)c1cn2c(c(O)c1=O)C(=O)N1CCCCC[C@H]2C1 [Example 5-2, (8S)—N-(2,4-difluorobenzyl)-13-hydroxy-1,12-dioxo-1,3,4,5,6,7,8,12-octahydro-2,8-methanopyrido[1,2-a][1,4]diazecine-11-carboxamide] | 2.9 nM | 19500 nM | 142 nM | 0.72 nM
12 | C[C@]1(F)CCCN2C[C@H]1n1cc(C(=O)NCc3ccc(F)cc3F)c(=O)c(O)c1C2=O [Example 60-1, (6S,7R)—N-(2,4-difluorobenzyl)-6-fluoro-12-hydroxy-6-methyl-1,11-dioxo-1,4,5,6,7,11-hexahydro-3H-2,7-methanopyrido[1,2-a][1,4]diazonine-10-carboxamide] | 1.77 nM | 13900 nM | 1.6 nM | 0.457 nM
13 | C[C@H]1[C@H]2CCCCN1C(=O)c1c(O)c(=O)c(C(=O)NCc3ccc(F)cc3F)cn12 [Example 9, (7R,13S)—N-(2,4-difluorobenzyl)-12-hydroxy-13-methyl-1,11-dioxo-1,4,5,6,7,11-hexahydro-3H-2,7-methanopyrido[1,2-a][1,4]diazonine-10-carboxamide] | 1.8 nM | 6610 nM | 1.68 nM | 0.33 nM
14 | O=C(NCc1ccc(F)cc1F)c1cn2c(c(O)c1=O)C(=O)N1C[C@H]2COc2cc(F)c(F)cc21 [Example 92-2, (6S)—N-(2,4-difluorobenzyl)-10,11-difluoro-1-hydroxy-2,14-dioxo-2,6,7,14-tetrahydro-6,13-methanobenzo[b]pyrido[2,1-f][1,4,7]oxadiazonine-3-carboxamide] | 2.01 nM | > 39300 nM | 0.772 nM | 0.309 nM
15 | C[C@H]1CCC[C@H]2CN1C(=O)c1c(O)c(=O)c(C(=O)NCc3ccc(F)cc3F)cn12 [Example 52-4, (3S, 7S)—N-(2,4-difluorobenzyl)-12-hydroxy-3-methyl-1,11-dioxo-1,4,5,6,7,11-hexahydro-3H-2,7-methanopyrido[1,2-a][1,4]diazonine-10-carboxamide] | 1.33 nM | 10300 nM | 7.54 nM | 0.218 nM
16 | C[C@]12CC=CCN(C1)C(=O)c1c(O)c(=O)c(C(=O)NCc3c(F)cc(F)cc3F)cn12 [Example 156, (7S)-12-hydroxy-7-methyl-1,11-dioxo-N-(2,4,6-trifluorobenzyl)-1,6,7,11-tetrahydro-3H-2,7-methanopyrido[1,2-a][1,4]diazonine-10-carboxamide] | 1.75 nM | 13700 nM | 41.3 nM | 0.187 nM
17 | O=C(NCc1ccc(F)cc1F)c1cn2c(c(O)c1=O)C(=O)N1CCCOC[C@@H]2C1 [Example 1-1, (S)-N-(2,4-difluorobenzyl)-13-hydroxy-1,12-dioxo-1,4,5,7,8,12-hexahydro-3H-2,8-methanopyrido[1,2-d][1,4,7]oxadiazecine-11-carboxamide] | 16.5 nM | > 50000 nM | 4.85 nM | 3.64 nM
18 | C[C@]12CC(F)CCN(C1)C(=O)c1c(O)c(=O)c(C(=O)NCc3c(F)cc(F)cc3F)cn12 (single isomer, unassigned) [Example 112] | 0.712 nM | 8030 nM | 27.8 nM | 0.182 nM
